One may read the IC50 as the concentration that inhibits the measured activity by half. A higher IC50 goes with lower potency.

Series [1] has as its target T1, Peroxisome proliferator-activated receptor gamma (Homo sapiens) (UniProt P37231).
T1 sequence (whole entry): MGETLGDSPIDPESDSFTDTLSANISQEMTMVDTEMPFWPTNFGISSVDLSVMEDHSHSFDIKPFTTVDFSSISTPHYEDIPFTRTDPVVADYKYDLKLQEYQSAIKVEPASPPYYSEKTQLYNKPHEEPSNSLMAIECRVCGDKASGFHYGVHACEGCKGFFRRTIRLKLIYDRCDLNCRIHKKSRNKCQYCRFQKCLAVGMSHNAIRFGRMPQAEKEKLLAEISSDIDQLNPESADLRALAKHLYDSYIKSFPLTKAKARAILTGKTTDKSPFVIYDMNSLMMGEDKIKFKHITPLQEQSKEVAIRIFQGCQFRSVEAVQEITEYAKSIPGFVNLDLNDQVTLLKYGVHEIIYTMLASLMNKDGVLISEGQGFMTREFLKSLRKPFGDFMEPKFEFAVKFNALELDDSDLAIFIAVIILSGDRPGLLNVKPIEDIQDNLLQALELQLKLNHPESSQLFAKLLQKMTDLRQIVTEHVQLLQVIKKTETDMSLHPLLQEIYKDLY
Nature of the series: Binding affinity to human PPARgamma LBD expressed in Escherichia coli BL21 DE3 assessed as melting temperature at 33 uM after 2 hrs using SYPRO orange dye.

A short description of series [2]: Solubility of the compound in DMSO. Format: physicochemical.
The target of series [3] is T2, Peroxisome proliferator-activated receptor gamma (Homo sapiens, UniProt P37231).
T2 sequence (P37231 whole entry): T1 sequence (whole entry)
Nature of the series: Displacement of fluormone from human PPARgamma LBD expressed in Escherichia coli BL21 DE3 by fluorescence polarization assay. For orientation: In fluorescence polarisation assays a small probe gives low polarisation when free and higher when bound to something large.

On to `CN(CCOc1ccc(CC2SC(=O)NC2=O)cc1)c1ccccn1` (configuration not stated), for which the Tm in series [1] stood at 49 °C.
For the compound `O=C(O)Cn1c(SCCOc2ccc3ccccc3c2)nc2ccccc21`, the Tm in series [1] came to 46 °C. The solubility result in series [2] is reported as “soluble”. For the same compound, the IC50 in series [3] amounted to 2.22 µM.
As for `O=C(CN1C(=O)c2ccccc2C1=O)NCc1ccc(C(=O)O)cc1`, the Tm in series [1] worked out at 46 °C. Further, the solubility result in series [2] is “soluble”.
Consider `Cc1ccccc1Nc1nc(N)nc(CSc2nc3ccccc3c(=O)[nH]2)n1`, for which the Tm in series [1] was found to be 46 °C. In addition, in series [2], the solubility result is recorded as “soluble”.
For `Cc1ccc(Cn2c(=N)n(CC(=O)O)c3ccccc32)cc1`, the Tm in series [1] is 46 °C. Besides, in series [2], the solubility entry is recorded as “soluble”.
Take `O=C(O)c1ccc(COc2ccccc2C=C2C(=O)c3ccccc3C2=O)cc1`: the Tm in series [1] stood at 53 °C. Also, in series [2], the solubility result was “soluble”. For the same compound, the 50% inhibitory concentration (IC50) in series [3] came out at 1.14 µM.
The matching figures for `O=C(O)c1ccc(-n2nnnc2SCc2ccccc2Br)cc1`: 46 °C, “soluble” and 5.13 µM.
Turning to `Cc1ccc(S(=O)(=O)Cc2noc(CCC(=O)O)n2)cc1`, the Tm in series [1] was determined as 46 °C. Moreover, the solubility entry in series [2] was “soluble”.
Take `CCOc1cc(/C=C2/SC(Nc3cccc(C(=O)O)c3)=NC2=O)ccc1OC`: the solubility entry in series [2] was “Insoluble”.
Regarding `C[C@@H](Oc1ccc(/C=C2/C(=O)N=C(O)N(c3cccc(Br)c3)C2=O)cc1)C(=O)O`, in series [1], the Tm was 46 °C. The solubility result in series [2] is listed as “soluble”.
Consider `CSc1ccccc1-n1nnnc1SCC(=O)O`, for which, in series [1], the Tm was 46 °C. The solubility result in series [2] is “soluble”.
Taken in the same sequence, the figures for `O=C(Nc1ccc(C(=O)O)cc1)/C(=C\c1ccc2c(c1)OCO2)NC(=O)c1ccc(Br)o1` were 46 °C and “soluble”.
In the case of `O=C(O)Cn1ccc2cc(OCc3ccccc3)ccc21`, in series [1], the Tm stood at 46 °C. In series [2], the solubility result is listed as “soluble”.
On to `COc1cccc(/C=C2\SC(=S)N(CCCC(=O)N3CCC(C(=O)O)CC3)C2=O)c1`, for which the Tm in series [1] was 49 °C. In series [2], the solubility result was “soluble”.
On to `CN1CCN(S(=O)(=O)c2ccc(SCC(=O)O)nc2)CC1`, for which the solubility result in series [2] is given as “Insoluble”.
As for `Cc1c(/C=C2\SC(Nc3cccc(C(=O)O)c3)=NC2=O)c2ccccc2n1C`, the Tm in series [1] is 46 °C. Also, in series [2], the solubility entry is given as “soluble”.

The record behind these values is ChEMBL document CHEMBL2434832, “Structure-based identification of novel PPAR gamma ligands” (Bioorg Med Chem Lett, 2013).
